# Experimental data as given in patent US20110086834A1, “ALKYNYL ALCOHOLS AS KINASE INHIBITORS” (AMGEN INC., priority 2008, published 2011).
# Biological target: T1, NIK (Homo sapiens, UniProt Q99558)
# T1 construct: Both assays utilize a truncated form of NIK containing only the catalytic domain; made in house; host or cells: baculovirus expression system (insect cells implied)
# Test: homogenous time resolved fluorescence (HTRF) assay for NIK Ki measurement
# Format: biochemical
# Settings: truncated NIK (catalytic domain only), autophosphorylation; 10 nM enzyme; 20, 100, 200 or 500 μM ATP; room temperature, 2 hours; read-out: Ki activity in the homogenous time resolved fluorescence (HTRF) assay for NIK
# T1 sequence (Q99558 400-655 limits assumed): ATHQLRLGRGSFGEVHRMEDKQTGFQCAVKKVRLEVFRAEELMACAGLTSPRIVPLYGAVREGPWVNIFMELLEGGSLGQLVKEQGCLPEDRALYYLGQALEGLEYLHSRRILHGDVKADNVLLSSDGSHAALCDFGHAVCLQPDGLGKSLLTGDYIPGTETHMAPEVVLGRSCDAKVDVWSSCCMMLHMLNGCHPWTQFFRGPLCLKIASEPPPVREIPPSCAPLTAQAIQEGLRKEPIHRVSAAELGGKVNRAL
row,SMILES,Ki
1,"CC(O)(C#Cc1ccc2c(c1)N(c1ccncc1)CC2(CO)CO)c1nccs1 (stereo not shown) [Example 59, 4-(3,3-bis(hydroxymethyl)-1-(4-pyridinyl)-2,3-dihydro-1H-indol-6-yl)-2-(1,3-thiazol-2-yl)-3-butyn-2-ol]",< 1000 nM
2,"COc1cc(C#CC2(O)CCCC2)cc2c1c(CO)cn2-c1nc(N)ncc1F [Example 103, 1-(2-(1-(2-amino-5-fluoropyrimidin-4-yl)-3-(hydroxymethyl)-4-methoxy-1H-indol-6-yl)ethynyl)cyclopentanol]",< 1000 nM
3,"COCCOc1cncnc1-c1c[nH]c2ccc(C#CC3(O)CCCC3)cc12 [Example 237, 1-((3-(5-(2-Methoxyethoxy)-4-pyrimidinyl)-1H-indol-5-yl)ethynyl)cyclopentanol]",< 1000 nM
4,"COc1cc(C#CC2(O)CCCC2)cc2c1CCN2c1nc(N)ncc1F [Example 18, 1-(2-(1-(2-amino-5-fluoropyrimidin-4-yl)-4-methoxyindolin-6-yl)ethynyl)cyclopentanol]",< 1000 nM
5,"Cc1noc(C(C)(O)C#Cc2ccc3c(c2)N(c2nc(N)ncc2Cl)CC3)n1 (stereo not shown) [Example 1, 4-(1-(2-amino-5-chloropyrimidin-4-yl)indolin-6-yl)-2-(3-methyl-1,2,4-oxadiazol-5-yl)but-3-yn-2-ol]",< 1000 nM
6,"C[C@@](O)(C#Cc1ccc2c(c1)N(c1ccncn1)CC21CCOCC1)c1nccs1 [Example 33, (2R)-4-(1-pyrimidin-4-yl-1,2,2′,3′,5′,6′-hexahydrospiro[indole-3,4′-pyran]-6-yl)-2-(1,3-thiazol-2-yl)but-3-yn-2-ol]",< 1000 nM
7,"Nc1ncc(Cl)c(-c2c[nH]c3ccc(C#CC4(O)CCCC4)cc23)n1 [Example 107, 1-(2-(3-(2-amino-5-chloropyrimidin-4-yl)-1H-indol-5-yl)ethynyl)cyclopentanol]",< 1000 nM
8,"CN1CCC(n2cc(-c3nc(N)ncc3Cl)c3cc(C#CC4(O)CCCC4)ccc32)C1 (stereo not shown) [Example 139, 1-(2-(3-(2-amino-5-chloropyrimidin-4-yl)-1-(1-methylpyrrolidin-3-yl)-1H-indol-5-yl)ethynyl)cyclopentanol]",< 1000 nM
9,"C[C@@](O)(C#Cc1ccc2c(c1)C(c1nc(N)ncc1Cl)=CC21CCOCC1)c1nccs1 [Example 221, (2R)-4-(3-(2-Amino-5-chloro-4-pyrimidinyl)-2′,3′,5′,6′-tetrahydrospiro[indene-1,4′-pyran]-5-yl)-2-(1,3-thiazol-2-yl)-3-butyn-2-ol]",< 1000 nM
10,"CN1CCOC2(C1)CN(c1nc(N)ncc1Cl)c1cc(C#C[C@@](C)(O)c3nccs3)ccc12 (stereo partly drawn) [Example 36, (2R)-4-[1-(2-amino-5-chloropyrimidin-4-yl)-4′-methyl-1,2-dihydrospiro[indole-3,2′-[1,4]oxazinan]-6-yl]-2-(1,3-thiazol-2-yl)but-3-yn-2-ol]",< 1000 nM
11,"COc1ccc(C#CC2(O)CCCC2)cc1Nc1nc(N)ncc1Cl [Example 145, 1-((3-((2-amino-5-chloro-4-pyrimidinyl)amino)-4-(methyloxy)-phenyl)ethynyl)-cyclopentanol]",< 1000 nM
12,C[C@](O)(C#Cc1ccc2c(c1)N(c1nc(N)ncc1Cl)CC21COC1)c1nccs1 [Example 81],1000 to 30000 nM
13,"Cc1cc([C@@](C)(O)C#Cc2ccc3c(c2)N(c2ncns2)CC3(C)C)no1 [Example 15, (S)-4-(3,3-dimethyl-1-(1,2,4-thiadiazol-5-yl)indolin-6-yl)-2-(5-methylisoxazol-3-yl)but-3-yn-2-ol]",< 1000 nM
14,"COc1ccc(Nc2cc(-n3ccc4ccc(C#CC5(O)CCCC5)cc43)ncn2)cc1 [Example 260, 1-((1-(6-((4-(methyloxy)phenyl)amino)-4-pyrimidinyl)-1H-indol-6-yl)-ethynyl)-cyclopentanol]",1000 to 30000 nM
15,"CCN(CC)CCn1cc(-c2nc(N)ncc2Cl)c2cc(C#CC3(O)CCCC3)ccc21 [Example 127, 1-(2-(3-(2-amino-5-chloropyrimidin-4-yl)-1-(2-(diethylamino)ethyl)-1H-indol-5-yl)ethynyl)cyclopentanol]",< 1000 nM
16,"Cc1nc(C(C)(O)C#Cc2ccc3c(c2)N(c2nc(N)ncc2Cl)CC3)no1 (stereo not shown) [Example 2, 4-(1-(2-amino-5-chloropyrimidin-4-yl)indolin-6-yl)-2-(5-methyl-1,2,4-oxadiazol-3-yl)but-3-yn-2-ol]",< 1000 nM
17,CC(O)(C#Cc1ccc(O[C@H]2CCOC2)c(Nc2nc(N)ncc2Cl)c1)c1nccs1 (stereo partly shown) [Example 155],< 1000 nM
18,"COCCN1CC2(C1)CN(c1nc(N)ncc1Cl)c1cc(C#C[C@@](C)(O)c3nccs3)ccc12 [Example 183, (2R)-4-(1′-(2-amino-5-chloropyrimidin-4-yl)-1-(2-methoxyethyl)spiro[azetidine-3,3′-indoline]-6′-yl)-2-(thiazol-2-yl)but-3-yn-2-ol]",< 1000 nM
19,"Cn1cnc(C(O)C#Cc2ccc3c(c2)N(c2nc(N)ncc2Cl)CC3(C)C)c1 (stereo not shown) [Example 46, 3-(1-(2-amino-5-chloro-4-pyrimidinyl)-3,3-dimethyl-2,3-dihydro-1H-indol-6-yl)-1-(1-methyl-1H-imidazol-4-yl)-2-propyn-1-ol]",< 1000 nM
20,"Nc1ncc(OCc2cccnc2)c(-c2c[nH]c3ccc(C#CC4(O)CCCC4)cc23)n1 [Example 232, 1-((3-(2-Amino-5-(3-pyridinylmethoxy)-4-pyrimidinyl)-1H-indol-5-yl)ethynyl)cyclopentanol]",< 1000 nM
21,"COc1ccc(C#CC2(O)CCCC2)cc1Nc1ccnc(N)n1 [Example 270, 1-((3-((2-amino-4-pyrimidinyl)amino)-4-(methyloxy)phenyl)ethynyl)cyclopentanol]",< 1000 nM
22,"CC(O)(C#Cc1ccc2c(c1)N(c1nc(N)ncc1Cl)CC21CCSCC1)c1nccs1 (racemic) [Example 214, (rac)-4-(1-(2-Amino-5-chloro-4-pyrimidinyl)-1,2,2′,3′,5′,6′-hexahydrospiro[indole-3,4′-thiopyran]-6-yl)-2-(1,3-thiazol-2-yl)-3-butyn-2-ol]",< 1000 nM
23,"Cc1cc(C(C)(O)C#Cc2ccc(OC3CCOCC3)c(Nc3nc(N)ncc3Cl)c2)no1 (stereo not shown) [Example 148, 4-(3-(2-Amino-5-chloropyrimidin-4-ylamino)-4-(tetrahydro-2H-pyran-4-yloxy)phenyl)-2-(5-methylisoxazol-3-yl)but-3-yn-2-ol]",< 1000 nM
24,"Nc1ncc2c(n1)-c1c([nH]c3ccc(C#CC4(O)CCCC4)cc13)CCC2 [Example 238, 1-((2-Amino-5,6,7,8-tetrahydropyrimido[4′,′:3,4]cyclohepta[1,2-b]indol-11-yl)ethynyl)cyclopentanol]",< 1000 nM
25,"CC(O)(C#Cc1ccc2c(c1)N(c1ccnc(N)n1)CC2)C1CCCC1 (stereo not shown) [Example 293, 4-(1-(2-Amino-4-pyrimidinyl)-2,3-dihydro-1H-indol-6-yl)-2-cyclopentyl-3-butyn-2-ol]",< 1000 nM
26,"Cc1csc(C(C)(O)C#Cc2ccc3c(c2)N(c2ccnc(N)n2)CC3)n1 (stereo not shown) [Example 287, 4-(1-(2-Amino-4-pyrimidinyl)-2,3-dihydro-1H-indol-6-yl)-2-(4-methyl-1,3-thiazol-2-yl)-3-Butyn-2-ol]",1000 to 30000 nM
27,"Nc1ncc(Cl)c(Nc2cc(C#CC3(O)CCCC3)ccc2OC2CCOCC2)n1 [Example 149, 1-(2-(3-(2-Amino-5-chloropyrimidin-4-ylamino)-4-(tetrahydro-2H-pyran-4-yloxy)phenyl)ethynyl)cyclopentanol]",< 1000 nM
28,"Cc1cc(C(C)(O)C#Cc2ccc3c(c2)N(c2ccnc(N)n2)CC3)no1 (stereo not shown) [Example 20, 4-(1-(2-aminopyrimidin-4-yl)indolin-6-yl)-2-(5-methylisoxazol-3-yl)but-3-yn-2-ol]",< 1000 nM
